Laboratory results as given in patent US20230257351A1, “SUBSTITUTED N-[…] HAVING P2X4 RECEPTOR ANTAGONISTIC ACTIVITY” (Bayer Aktiengesellschaft, priority 2020, published 2023).

Target: T1, human P2X4 (Homo sapiens, UniProt Q99571)
T1 construct: expressed in transfected cells
T1 sequence (Q99571 1-388): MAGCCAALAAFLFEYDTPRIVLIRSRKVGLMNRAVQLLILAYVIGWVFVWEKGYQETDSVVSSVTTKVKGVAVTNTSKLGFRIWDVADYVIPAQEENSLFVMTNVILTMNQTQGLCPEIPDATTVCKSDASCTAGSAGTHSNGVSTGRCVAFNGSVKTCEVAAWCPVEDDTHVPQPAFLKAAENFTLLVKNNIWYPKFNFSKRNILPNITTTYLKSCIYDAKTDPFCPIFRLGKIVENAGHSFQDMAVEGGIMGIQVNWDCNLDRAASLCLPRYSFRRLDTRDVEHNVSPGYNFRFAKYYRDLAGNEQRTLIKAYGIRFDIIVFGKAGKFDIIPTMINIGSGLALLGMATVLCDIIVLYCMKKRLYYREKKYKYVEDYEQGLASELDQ
Assay: Human P2X4 HEK Cell FLIPR Assay
Assay type: cell-based
Settings: HEK293 stably expressing human P2X4, agonist Bz-ATP 3 μM (EC80); for IC50: read-out: Human P2X4 HEK Cells (FLIPR Assay) avg IC50
Method in brief: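 HEK293 cells stably expressing human P2X4 were loaded with Fluo8-AM (30 min, 37 °C, HBSS/HEPES pH 7.4 with probenecid), then preincubated 30 min at room temperature with compound, 25 μM–1 nM final, 0.5% DMSO. Bz-ATP-evoked calcium fluorescence was read on FLIPR; data were normalized to agonist control and given a four-parameter fit for IC50.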

Row | Compound | Human P2X4 HEK Cells (FLIPR Assay) avg Efficacy [%] | IC50 [µM]
1 | CC(=O)N(c1cc(F)c(C)c(F)c1)c1cc(NC(=O)Cc2ccccc2Cl)ccn1 [Example 92, N-{4-[2-(2-chlorophenyl)acetamido]pyridin-2-yl}-N-(3,5-difluoro-4-methylphenyl)acetamide] | 97 | 0.568
2 | CC(=O)N(c1cccc(C(F)F)c1)c1cc(NC(=O)Cc2ccc(F)cc2Cl)ccn1 [Example 3, N-{4-[2-(2-chloro-4-fluorophenyl)acetamido]pyridin-2-yl}-N-[3-(difluoromethyl)phenyl]acetamide] | 98 | 0.657
3 | CC(=O)N(c1ccc(F)cc1)c1cc(NC(=O)Cc2ccc(F)cc2Cl)cnn1 [Example 190, N-{5-[2-(2-chloro-4-fluorophenyl)acetamido]pyridazin-3-yl}-N-(4-fluorophenyl)acetamide] | 95 | 0.716
4 | CC(=O)N(c1cc(NC(=O)Cc2c(Cl)cccc2Cl)ccn1)c1ccccc1C(F)F [Example 165, N-{4-[2-(2,6-Dichlorphenyl)acetamido]pyridin-2-yl}-N-[2-(difluormethyl)phenyl]acetamide] | 99 | 0.402
5 | CC(=O)N(c1cc(NC(=O)Cc2cccc(F)c2Cl)ccn1)c1cccc(F)c1F [Example 124, N-{4-[2-(2-chloro-3-fluorophenyl)acetamido]pyridin-2-yl}-N-(2,3-difluorophenyl)acetamide] | 94 | 0.289
6 | CC(=O)N(c1cc(NC(=O)Cc2cccc(F)c2Cl)ccn1)c1ccc(F)cc1Cl [Example 154, N-(2-Chlor-4-fluorphenyl)-N-{4-[2-(2-chlor-3-fluorphenyl)acetamido]pyridin-2-yl}acetamide] | 101 | 0.511
7 | CC(=O)N(c1cc(C)cc(C#N)c1)c1cc(NC(=O)Cc2ccccc2Cl)ccn1 [Example 175, N-{4-[2-(2-Chlorphenyl)acetamido]pyridin-2-yl}-N-(3-cyan-5-methylphenyl)acetamide] | 97 | 0.516
8 | CC(=O)N(c1cc(NC(=O)Cc2ccc(F)cc2Cl)ccn1)c1ccccc1F [Example 116, N-{4-[2-(2-chloro-4-fluorophenyl)acetamido]pyridin-2-yl}-N-(2-fluorophenyl)acetamide] | 97 | 0.52
9 | CC(=O)N(c1ccc(C)cc1)c1cc(NC(=O)Cc2ccccc2Cl)ccn1 [Example 43, N-{4-[2-(2-chlorophenyl)acetamido]pyridin-2-yl}-N-(4-methylphenyl)acetamide] | 100 | 0.406
10 | CC(=O)N(c1cc(NC(=O)Cc2c(Cl)cccc2Cl)ccn1)c1ccccc1F [Example 118, N-{4-[2-(2,6-dichlorophenyl)acetamido]pyridin-2-yl}-N-(2-fluorophenyl)acetamide] | 94 | 0.545
11 | CC(=O)N(c1cc(F)cc(C#N)c1)c1cc(NC(=O)Cc2c(F)cccc2Cl)ccn1 [Example 148, N-{4-[2-(2-Chlor-6-fluorphenyl)acetamido]pyridin-2-yl}-N-(3-cyan-5-fluorphenyl)acetamide] | 96 | 0.436
12 | CC(=O)N(c1ccccc1)c1cc(NC(=O)Cc2c(F)cccc2Cl)ccn1 [Example 28, N-{4-[2-(2-chloro-6-fluorophenyl)acetamido]pyridin-2-yl}-N-phenylacetamide] | 91 | 0.777
13 | COc1cc(N(C(C)=O)c2cc(NC(=O)Cc3cccc(F)c3Cl)ccn2)ccc1F [Example 103, N-{4-[2-(2-chloro-3-fluorophenyl)acetamido]pyridin-2-yl}-N-(4-fluoro-3-methoxyphenyl)acetamide] | 97 | 0.767
14 | CC(=O)N(c1cc(NC(=O)Cc2ccccc2Cl)ccn1)c1ccccc1C(F)F [Example 166, N-{4-[2-(2-Chlorphenyl)acetamido]pyridin-2-yl}-N-[2-(difluormethyl)phenyl]acetamide] | 97 | 0.663
15 | CC(=O)N(c1cccc(F)c1)c1cc(NC(=O)Cc2c(Cl)cccc2Cl)cnn1 [Example 194, N-{5-[2-(2,6-dichlorophenyl)acetamido]pyridazin-3-yl}-N-(3-fluorophenyl)acetamide] | 96 | 0.407
16 | CC(=O)N(c1ccc(Cl)c(C#N)c1)c1cc(NC(=O)Cc2ccccc2Cl)ccn1 [Example 16, N-(4-chloro-3-cyanophenyl)-N-{4-[2-(2-chlorophenyl)acetamido]pyridin-2-yl}acetamide] | 95 | 0.388
17 | CC(=O)N(c1cc(F)cc(C#N)c1)c1cc(NC(=O)Cc2cccc(F)c2Cl)ccn1 [Example 147, N-{4-[2-(2-Chlor-3-fluorphenyl)acetamido]pyridin-2-yl}-N-(3-cyan-5-fluorphenyl)acetamide] | 97 | 0.384
18 | CC(=O)N(c1ccc(F)c(C#N)c1)c1cc(NC(=O)Cc2cccc(C(F)(F)F)c2Cl)ccn1 [Example 20, N-(4-{2-[2-chloro-3-(trifluoromethyl)phenyl]acetamido}pyridin-2-yl)-N-(3-cyano-4-fluorophenyl)acetamide] | 99 | 0.748
19 | COc1c(F)cc(N(C(C)=O)c2cc(NC(=O)Cc3c(Cl)cccc3Cl)ccn2)cc1F [Example 99, N-{4-[2-(2,6-dichlorophenyl)acetamido]pyridin-2-yl}-N-(3,5-difluoro-4-methoxyphenyl)acetamide] | 95 | 0.449
20 | CC(=O)N(c1ccc(F)cc1)c1cc(NC(=O)Cc2ccc(Cl)cc2C(F)(F)F)ccn1 [Example 31, N-(4-{2-[4-chloro-2-(trifluoromethyl)phenyl]acetamido}pyridin-2-yl)-N-(4-fluorophenyl)acetamide] | 100 | 0.909
21 | CC(=O)N(c1ccc(F)cc1)c1cc(NC(=O)Cc2cccc(C(F)(F)F)c2Cl)ccn1 [Example 35, N-(4-{2-[2-chloro-3-(trifluoromethyl)phenyl]acetamido}pyridin-2-yl)-N-(4-fluorophenyl)acetamide] | 99 | 0.938
22 | CC(=O)N(c1ccc(C)c(Cl)c1)c1cc(NC(=O)Cc2ccccc2Cl)ccn1 [Example 180, N-(3-Chlor-4-methylphenyl)-N-{4-[2-(2-chlorphenyl)acetamido]pyridin-2-yl}acetamide] | 101 | 0.569
23 | CC(=O)N(c1ccc(C)cc1)c1cc(NC(=O)Cc2ccc(F)cc2Cl)ccn1 [Example 44, N-{4-[2-(2-chloro-4-fluorophenyl)acetamido]pyridin-2-yl}-N-(4-methylphenyl)acetamide] | 99 | 0.607
24 | CC(=O)N(c1cc(F)cc(Cl)c1)c1cc(NC(=O)Cc2cccc(F)c2Cl)ccn1 [Example 138, N-(3-chloro-5-fluorophenyl)-N-{4-[2-(2-chloro-3-fluorophenyl)acetamido]pyridin-2-yl}acetamide] | 96 | 0.316
25 | CC(=O)N(c1cc(C)cc(C#N)c1)c1cc(NC(=O)Cc2c(F)cccc2Cl)ccn1 [Example 179, N-{4-[2-(2-Chlor-6-fluorphenyl)acetamido]pyridin-2-yl}-N-(3-cyan-5-methylphenyl)acetamide] | 98 | 0.673
26 | COc1cc(F)cc(N(C(C)=O)c2cc(NC(=O)Cc3ccc(F)cc3Cl)ccn2)c1 [Example 163, N-{4-[2-(2-Chlor-4-fluorphenyl)acetamido]pyridin-2-yl}-N-(3-fluor-5-methoxyphenyl)acetamide] | 100 | 0.665
27 | CC(=O)N(c1cc(NC(=O)Cc2cccc(C(F)(F)F)c2Cl)ccn1)c1ccccc1Cl [Example 105, N-(2-chlorophenyl)-N-(4-{2-[2-chloro-3-(trifluoromethyl)phenyl]acetamido}pyridin-2-yl)acetamide] | 100 | 0.77
28 | CC(=O)N(c1cc(NC(=O)Cc2ccc(F)cc2Cl)ccn1)c1ccccc1Cl [Example 107, N-{4-[2-(2-chloro-4-fluorophenyl)acetamido]pyridin-2-yl}-N-(2-chlorophenyl)acetamide] | 98 | 0.55
29 | CC(=O)N(c1ccccc1)c1cc(NC(=O)Cc2cccc(F)c2Cl)cnn1 [Example 186, N-{5-[2-(2-chloro-3-fluorophenyl)acetamido]pyridazin-3-yl}-N-phenylacetamide] | 99 | 0.655
30 | CC(=O)N(c1cc(NC(=O)Cc2cccc(F)c2Cl)ccn1)c1ccccc1Cl [Example 108, N-{4-[2-(2-chloro-3-fluorophenyl)acetamido]pyridin-2-yl}-N-(2-chlorophenyl)acetamide] | 97 | 0.769
